According to patent publication US10780106B2, “Method for treating NASH accompanied by fibrosis using Cl-IB-MECA” (CAN-FITE BIOPHARMA LTD., priority 2015, dated 2020):
“Also recorded” adds a separate entry of the source.

Experiments:
NASH mice [1] = experiment: Example 2: STZ plus high fat diet mouse model, effect of CF102 on NAS score; type: in vivo; conditions: CF102 200 μg/kg orally thrice daily, 6 to 9 weeks of age; compared to the vehicle
Description: Male mice were injected with 200 μg/animal STZ two days after birth. From 4 weeks of age, the mice were fed with high fat diet. At 6 weeks of age, the mice were randomized into vehicle and CF102 200 μg/kg treatment groups. Treatment was given orally, thrice daily. Termination was performed after 9 weeks. Hematoxylin & Eosin staining was used for estimation of NAFLD Activity.

hepatocyte = conditions: as disclosed in WO09/050707; cited from earlier work
NASH mice [2] = experiment: Example 1: STZ plus high fat diet NASH mouse model, effect of CF102 on liver weight, ALT, TG and liver histology; type: in vivo, Male C57BL/6 mice
Description: Male C57BL/6 mice were used as a murine experimental model.
The A3AR agonist, 2-Chloro-N^6-(3-iodobenzyl)-adenosine-5′-N-methyluronamide (Cl-IB-MECA, referred to herein by the abbreviated name CF102), was synthesized for Can-Fite BioPharma by Albany Molecular Research Inc, Albany. N.Y., USA. CF102 was used in liquid form, dissolved in dimethyl sulfoxide (DMSO), used as the vehicle. Dissolved CF102 and the DMSO vehicle were administered at the same volume.
Male C57BL/6 mice were injected with a single subcutaneous injection of 200 μg streptozotocin (STZ) two days after birth and feeding with high fat diet after 4 weeks of age. […] Treatment was given between 6 weeks of age and 9 weeks of age.
After Study termination, liver weight was measured and Liver-to-Body weight ratio was calculated.
Plasma ALT and liver triglyceride were measured and histological analyses were made on the liver sections for the following: Hematoxylin & Eosin staining for estimation of NAFLD Activity score and Sirius red staining for estimation of fibrosis area.

[3] = Hematoxylin & Eosin liver histology, compared to the Vehicle
[4] = NASH mice, CF102 orally thrice daily from 6 to 9 weeks of age, vs vehicle

CNC(=O)[C@H]1O[C@@H](n2cnc3c(NCc4cccc(I)c4)nc(Cl)nc32)[C@H](O)[C@@H]1O [CF102, 2-Chloro-N^6-(3-iodobenzyl)-adenosine-5′-N-methyluronamide]
inflammation NAS (NAFLD Activity Score) score (NASH mice [1]): reduced the inflammation NAS; also recorded: reducing the inflammation NAS score
hepatocyte proliferation (hepatocyte): induce hepatocyte proliferation
NAFLD activity score (NASH mice [2]; CF102 200 μg/kg, FIG. 4): decrease in NAFLD activity score
ballooning (liver sections) (NASH mice [2]; [3]): significant decrease
lobular inflammation (liver sections) (NASH mice [2]; [3]): significant decrease
steatosis (liver sections) (NASH mice [2]; [3]): significant decrease
liver-to-body weight ratio (NASH mice [2]; NASH livers in mice, CF102 orally thrice daily from 6 to 9 weeks of age, vs vehicle, p=0.05): reduced liver-to-body weight ratio; also recorded: reduction of liver-to-body weight ratio
Triglycerides levels in the liver (NASH mice [2]; [4]): decrease
plasma ALT level (NASH mice [2]; [4]): decreased ALT levels; also recorded: decrease in plasma ALT level
